# Measured values published in US20240376085A1 (Janssen Pharmaceutica NV, priority 2021, published 2024).
# Assays:
# IL-17A : IL-17RA binding = molecular target: T1, IL-17A : IL-17RA binding (Homo sapiens, UniProt Q16552, K93Q); test: IL-17A(FLAG-tagged):IL-17RA(His-tagged) binding disruption Eu-HTRF assay, Protocol 1; details: FLAG-IL-17A 2.5 nM at 2x final concentration; average if tested more than once
# T1 construct: Name: IL-17A-Flag
# Text: An antibody directed against the FLAG tag of IL-17A (SEQ ID NO: 1) is labeled with the HTRF donor chromophore (Europium-cryptate). IL-17A is present as a dimer that is “locked into” this quaternary structure due to the formation of loop-spanning […] disulfide bridges. The construct of IL-17RA used in the assay excludes the […] portion of the receptor and is fused to a C-terminal 10×His tag (SEQ ID NO:2). An antibody directed against the His tag of the IL-17RA chimera is labeled with the HTRF acceptor chromophore (“D2”). The fluorescence-resonance energy transfer (FRET) depends on the vicinity of the donor chromophore to the acceptor, and interruption of the binding between the IL-17A and IL-17RA causes the reduction/loss of FRET. Therefore, this assay allows to evaluate the compound effect on the binding IL-17A and IL-17RA by monitoring the fluorescence intensity of donor vs acceptor. The assay was run using either Protocol 1 or Protocol 2 as described below.
# Protocol 1. 40 nl of 2-fold serial diluted compound solution for total 22 dilution points is added into each well of a 1536-well, white, low-volume, non-binding plate (Greiner #782904), then 2 μl of FLAG tagged IL-17A at 2× final concentration (2.5 nM) in solution of PBS+0.01% Triton-X100 is added to each well. The assay plate is briefly centrifuged then incubated for 1 h at rt. A mixed solution is prepared containing 2×5 nM 10HIS×IL-17RA, 2×2.5 nM Eu-anti-FLAG (CISBIO), 2×5 nM D2-anti-HIS (CISBIO) in PBS+0.01% Triton-X100+200 mM Potassium Fluoride (Sigma 60238) and 2 μl of mix is added to each well of the assay plate. The plate is briefly centrifuged then incubated for 2 h at rt. The HTRF intensities at the wavelength of donor (620 nm) and acceptor (665 nm) are measured using BMG Pherastar. The ratio between intensities at two wavelengths is calculated and plotted against the compound concentration and the data is fitted to a one-site competition model to yield IC50 of the compound.
# [1] = tested on: IL-17A-induced G-CSF production in human normal keratinocyte (NHK); test: NHK assay: IL-17A-induced G-CSF production in normal human keratinocytes; format: cell-based; details: Homo sapiens, Keratinocyte, 24 h, IL-17A 5 ng/mL, average if tested more than once
# Description: IL-17A acts directly on keratinocytes through binding to dimeric receptor IL-17RA/RC and drives the production of a number of inflammatory mediators known to be elevated in psoriasis lesional tissue. IL-17A small molecule inhibitors that block the IL-17A to interact with IL-17R would inhibit the IL-17A signaling in its targeted cells such as keratinocytes. The compound functional activity is evaluated for its impact on IL-17A-induced G-CSF production in human normal keratinocyte (NHK).
# Adult normal human keratinocytes are cultured in keratinocyte growth medium (Lonza) in a flask till reaching ˜90% confluence, then cells are transferred to a 384-well plate at density of 3000-4000 cell/well. Recombinant human IL-17A (Gibco PHC9174) is pre-incubated with titrated compound or DMSO for 1 h at rt then added to the cell culture plate. The final concentration of IL-17A is 5 ng/mL and DMSO is 0.2%, in the culture containing 5% FBS. Cells are cultured/treated for 24 h at 37° C. Supernatants are collected and G-CSF production is measured through HTRF technology using Human G-CSF Kit (CisBio). G-CSF concentration was extrapolated from the standard curve and IC50 is determined using GraphPad Prism. Cell viability is also evaluated using CellTiter-Glo kit (Promega) and effect of compound on cell viability is compared to DMSO control.
# T1 sequence (Q16552 with tags, fused parts or gaps K93Q): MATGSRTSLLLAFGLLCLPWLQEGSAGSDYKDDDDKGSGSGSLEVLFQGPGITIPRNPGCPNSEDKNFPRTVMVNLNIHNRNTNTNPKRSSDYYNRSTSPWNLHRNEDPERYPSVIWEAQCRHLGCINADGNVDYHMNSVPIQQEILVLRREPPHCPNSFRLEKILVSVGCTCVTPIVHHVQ
IC50 (IL-17A : IL-17RA binding),Compound,IC50 [1]
> 0.1 µM,"C[C@@H](NC(=O)CCC(F)(F)F)c1ccc2[nH]c([C@@H](NC(=O)c3cc(CCC(F)(F)F)on3)C3CCC(F)(F)CC3)nc2c1 [Example 217, N—((S)-(4,4-Difluorocyclohexyl)(5-((R)-1-(4,4,4-trifluorobutanamido)ethyl)-1H-benzo[d]imidazol-2-yl)methyl)-5-(3,3,3-trifluoropropyl)isoxazole-3-carboxamide]",> 0.1 µM
> 0.1 µM,"C[C@@H](NC(=O)CCC(F)(F)F)c1ccc2[nH]c([C@@H](NC(=O)[C@@H]3CC[C@@H]3CF)C3CCC(F)(F)CC3)nc2c1 (single isomer, unassigned) [Example 113]",> 0.1 µM
> 0.1 µM,"C[C@@H](NC(=O)CCC(F)(F)F)c1ccc2[nH]c([C@@H](NC(=O)[C@H]3C[C@@H]3C(F)(F)F)C3CCC(F)(F)CC3)nc2c1 (relative stereo) [Example 105, trans-(1S*,2S*)—N—((S)-(4,4-Difluorocyclohexyl)(5-((R)-1-(4,4,4-trifluorobutanamido)ethyl)-1H-benzo[d]imidazol-2-yl)methyl)-2-(trifluoromethyl)cyclopropane-1-carboxamide]",> 0.1 µM
0.05 to 0.1 µM,"CC(C)c1ocnc1C(=O)N[C@H](c1nc2cc([C@@H](C)NC(=O)CCC(F)(F)F)ccc2[nH]1)C1CCC(F)(F)CC1 [Example 207, N—((S)-(4,4-Difluorocyclohexyl)(5-((R)-1-(4,4,4-trifluorobutanamido)ethyl)-1H-benzo[d]imidazol-2-yl)methyl)-5-isopropyloxazole-4-carboxamide]",> 0.1 µM
> 0.1 µM,"C[C@@H](NC(=O)CCC(F)(F)F)c1ccc2[nH]c([C@@H](NC(=O)c3cnnn3CC(F)(F)F)C3CCC(F)(F)CC3)nc2c1 [Example 23, N—[(S)-(4,4-Difluorocyclohexyl)-[6-[(1R)-1-(4,4,4-trifluorobutanoylamino)ethyl]-1H-benzimidazol-2-yl]methyl]-3-(2,2,2-trifluoroethyl)triazole-4-carboxamide]",> 0.1 µM
> 0.1 µM,"C[C@@H](NC(=O)CCC(F)(F)F)c1ccc2[nH]c([C@@H](NC(=O)c3cnc(CCC(F)(F)F)s3)C3CCC(F)(F)CC3)nc2c1 [Example 222, N—((S)-(4,4-Difluorocyclohexyl)(5-((R)-1-(4,4,4-trifluorobutanamido)ethyl)-1H-benzo[d]imidazol-2-yl)methyl)-2-(3,3,3-trifluoropropyl)thiazole-5-carboxamide]",> 0.1 µM

# More lines, now with the values behind:
Compound,IC50 (IL-17A : IL-17RA binding),IC50 [1]
"Cc1nonc1C(=O)N[C@@H](CC1(C(F)(F)F)CC1)c1nc2ccc([C@H](NC(=O)CC3CC(F)(F)C3)C3CC3)cc2[nH]1 [Example 242, N—((S)-1-(6-((R)-Cyclopropyl(2-(3,3-difluorocyclobutyl)acetamido)methyl)-1H-benzo[d]imidazol-2-yl)-2-(1-(trifluoromethyl)cyclopropyl)ethyl)-4-methyl-1,2,5-oxadiazole-3-carboxamide]",> 0.1 µM,> 0.1 µM
"CC(C)(OCC(NC(=O)c1nonc1C1CC1)c1nc2ccc([C@H](NC(=O)CC3CC(F)(F)C3)C3CC3)cc2[nH]1)C(F)(F)F (single isomer, unassigned) [Example 163, 4-Cyclopropyl-N—((S*)-1-(6-((R)-cyclopropyl(2-(3,3-difluorocyclobutyl)acetamido)methyl)-1H-benzo[d]imidazol-2-yl)-2-((1,1,1-trifluoro-2-methylpropan-2-yl)oxy)ethyl)-1,2,5-oxadiazole-3-carboxamide]",> 0.1 µM,> 0.1 µM
"CC(C)n1nccc1C(=O)NC(COC(C)(C)C(F)(F)F)c1nc2ccc([C@H](NC(=O)CC3CC(F)(F)C3)C3CC3)cc2[nH]1 (single isomer, unassigned) [Example 162, N—((S*)-1-(6-((R)-Cyclopropyl(2-(3,3-difluorocyclobutyl)acetamido)methyl)-1H-benzo[d]imidazol-2-yl)-2-((1,1,1-trifluoro-2-methylpropan-2-yl)oxy)ethyl)-1-isopropyl-1H-pyrazole-5-carboxamide]",> 0.1 µM,> 0.1 µM
"CC(C)n1nccc1C(=O)N[C@H](c1nc2ccc([C@@H](C)NC(=O)CC(C)C(F)(F)F)cc2[nH]1)C1CCC(F)(F)CC1 (single isomer, unassigned) [Example 135, N—((S)-(4,4-Difluorocyclohexyl)(6-((R)-1-((R*)-4,4,4-trifluoro-3-methylbutanamido)ethyl)-1H-benzo[d]imidazol-2-yl)methyl)-1-isopropyl-1H-pyrazole-5-carboxamide]",> 0.1 µM,< 0.05 µM
"CC(C)n1nccc1C(=O)N[C@H](c1nc2ccc([C@H](NC(=O)CC3CC(F)(F)C3)C3CC3)cc2[nH]1)[C@@H]1C[C@H]2C[C@H]2C1 [Example 255, N—((S)-((1R,3s,5S)-Bicyclo[3.1.0]hexan-3-yl)(6-((R)-cyclopropyl(2-(3,3-difluorocyclobutyl)acetamido)methyl)-1H-benzo[d]imidazol-2-yl)methyl)-1-isopropyl-1H-pyrazole-5-carboxamide]",0.05 to 0.1 µM,< 0.05 µM
"Cn1nccc1C(=O)N[C@H](c1nc2cc(C(NC(=O)CCC(F)(F)F)C3CC3)ccc2[nH]1)C1CCC(F)(F)CC1 (single isomer, unassigned) [Example 54, N—((S)-(5-((S*)-Cyclopropyl(4,4,4-trifluorobutanamido)methyl)-1H-benzo[d]imidazol-2-yl)(4,4-difluorocyclohexyl)methyl)-1-methyl-1H-pyrazole-5-carboxamide]",> 0.1 µM,< 0.05 µM
"C[C@@H](NC(=O)CC(C(F)(F)F)C(F)(F)F)c1ccc2[nH]c([C@@H](NC(=O)c3cc(F)ccc3F)C3CCC(F)(F)CC3)nc2c1 [Example 130, N—((S)-(4,4-Difluorocyclohexyl)(6-((R)-1-(4,4,4-trifluoro-3-(trifluoromethyl)butanamido)ethyl)-1H-benzo[d]imidazol-2-yl)methyl)-2,5-difluorobenzamide]",> 0.1 µM,> 0.1 µM
"Cc1nonc1C(=O)NC(CC(C)(C)C(F)(F)F)c1nc2cc([C@@H](C)NC(=O)CCC(F)(F)F)ccc2[nH]1 (single isomer, unassigned) [Example 198, 4-Methyl-N—((S*)-4,4,4-trifluoro-3,3-dimethyl-1-(5-((R)-1-(4,4,4-trifluorobutanamido)ethyl)-1H-benzo[d]imidazol-2-yl)butyl)-1,2,5-oxadiazole-3-carboxamide]",0.05 to 0.1 µM,> 0.1 µM
"CC(CC(=O)N[C@H](C)c1ccc2nc([C@@H](NC(=O)c3ccnn3CCC(F)(F)F)C3CCC(F)(F)CC3)[nH]c2c1)C(F)(F)F (single isomer, unassigned) [Example 134, N—((S)-(4,4-Difluorocyclohexyl)(6-((R)-1-((R*)-4,4,4-trifluoro-3-methylbutanamido)ethyl)-1H-benzo[d]imidazol-2-yl)methyl)-1-(3,3,3-trifluoropropyl)-1H-pyrazole-5-carboxamide]",> 0.1 µM,> 0.1 µM
"CCc1nonc1C(=O)N[C@@H](CC(C)(C)C(F)(F)F)c1nc2cc([C@H](NC(=O)CCC(F)(F)F)C3CC3)ccc2[nH]1 (relative stereo) [Example 190, N—((S*)-1-(5-((R*)-Cyclopropyl(4,4,4-trifluorobutanamido)methyl)-1H-benzo[d]imidazol-2-yl)-4,4,4-trifluoro-3,3-dimethylbutyl)-4-ethyl-1,2,5-oxadiazole-3-carboxamide]",< 0.05 µM,< 0.05 µM
